Measured values published in article PMC6063846, “Matrine inhibits itching by lowering the activity of calcium channel” (Scientific Reports, 2018).

Target: T1, N-type calcium channel (Mus musculus, UniProt O55017)
T1 construct: gene Cacna1b
Type: cell-based

T1 sequence (O55017 whole entry): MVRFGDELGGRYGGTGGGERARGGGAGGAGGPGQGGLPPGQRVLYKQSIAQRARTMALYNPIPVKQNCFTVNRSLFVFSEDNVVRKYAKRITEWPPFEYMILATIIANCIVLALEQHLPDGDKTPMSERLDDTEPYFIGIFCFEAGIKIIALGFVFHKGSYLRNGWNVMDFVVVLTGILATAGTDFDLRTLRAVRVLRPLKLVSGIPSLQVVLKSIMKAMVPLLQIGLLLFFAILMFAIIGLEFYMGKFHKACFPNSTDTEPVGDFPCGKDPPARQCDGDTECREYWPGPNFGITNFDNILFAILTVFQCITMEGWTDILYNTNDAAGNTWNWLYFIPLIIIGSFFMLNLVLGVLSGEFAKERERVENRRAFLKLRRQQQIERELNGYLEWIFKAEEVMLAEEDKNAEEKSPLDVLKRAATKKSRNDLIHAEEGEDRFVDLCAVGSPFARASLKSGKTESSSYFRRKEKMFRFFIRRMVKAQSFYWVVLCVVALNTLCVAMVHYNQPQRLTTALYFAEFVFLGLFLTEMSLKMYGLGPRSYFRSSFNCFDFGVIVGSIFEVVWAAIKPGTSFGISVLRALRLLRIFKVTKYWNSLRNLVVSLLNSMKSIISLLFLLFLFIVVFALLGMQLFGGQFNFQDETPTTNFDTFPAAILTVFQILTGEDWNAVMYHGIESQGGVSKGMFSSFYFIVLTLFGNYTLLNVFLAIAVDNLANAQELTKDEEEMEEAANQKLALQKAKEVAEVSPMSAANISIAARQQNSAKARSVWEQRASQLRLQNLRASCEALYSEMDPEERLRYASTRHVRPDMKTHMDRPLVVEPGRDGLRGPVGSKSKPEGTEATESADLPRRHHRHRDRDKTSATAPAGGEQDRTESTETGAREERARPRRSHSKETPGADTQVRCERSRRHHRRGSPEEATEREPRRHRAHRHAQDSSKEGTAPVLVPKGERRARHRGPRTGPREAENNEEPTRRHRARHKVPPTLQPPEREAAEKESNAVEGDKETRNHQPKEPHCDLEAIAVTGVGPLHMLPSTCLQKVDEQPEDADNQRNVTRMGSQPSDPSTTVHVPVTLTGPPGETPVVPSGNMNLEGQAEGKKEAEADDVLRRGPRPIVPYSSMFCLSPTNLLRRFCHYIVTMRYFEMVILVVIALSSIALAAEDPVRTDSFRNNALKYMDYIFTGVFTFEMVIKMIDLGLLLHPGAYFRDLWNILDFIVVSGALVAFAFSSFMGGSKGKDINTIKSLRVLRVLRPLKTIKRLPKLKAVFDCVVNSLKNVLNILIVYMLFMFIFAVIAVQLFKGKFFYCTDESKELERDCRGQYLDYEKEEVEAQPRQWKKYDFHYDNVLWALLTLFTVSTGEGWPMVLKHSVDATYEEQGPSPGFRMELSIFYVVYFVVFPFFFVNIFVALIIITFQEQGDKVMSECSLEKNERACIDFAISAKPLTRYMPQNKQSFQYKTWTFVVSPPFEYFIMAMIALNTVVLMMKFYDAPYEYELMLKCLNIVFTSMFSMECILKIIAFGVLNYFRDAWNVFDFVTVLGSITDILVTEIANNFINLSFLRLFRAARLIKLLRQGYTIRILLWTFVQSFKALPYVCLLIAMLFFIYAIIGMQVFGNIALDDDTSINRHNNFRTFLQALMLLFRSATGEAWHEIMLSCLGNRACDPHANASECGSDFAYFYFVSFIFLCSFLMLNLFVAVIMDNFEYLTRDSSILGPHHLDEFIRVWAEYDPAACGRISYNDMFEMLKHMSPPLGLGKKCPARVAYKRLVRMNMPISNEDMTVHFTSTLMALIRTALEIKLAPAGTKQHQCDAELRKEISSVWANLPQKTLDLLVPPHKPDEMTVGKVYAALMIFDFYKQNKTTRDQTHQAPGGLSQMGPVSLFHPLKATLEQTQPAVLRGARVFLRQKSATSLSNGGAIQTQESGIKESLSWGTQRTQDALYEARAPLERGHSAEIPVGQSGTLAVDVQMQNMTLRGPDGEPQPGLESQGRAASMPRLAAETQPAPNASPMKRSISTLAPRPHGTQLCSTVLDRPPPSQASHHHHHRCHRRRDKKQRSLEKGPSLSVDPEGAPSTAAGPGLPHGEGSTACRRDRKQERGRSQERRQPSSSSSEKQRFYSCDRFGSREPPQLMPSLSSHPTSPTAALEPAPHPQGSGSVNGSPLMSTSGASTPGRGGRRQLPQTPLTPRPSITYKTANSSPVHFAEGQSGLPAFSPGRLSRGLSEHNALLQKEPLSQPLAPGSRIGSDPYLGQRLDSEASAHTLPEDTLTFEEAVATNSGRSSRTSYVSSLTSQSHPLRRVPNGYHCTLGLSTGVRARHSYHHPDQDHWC

For O=C1CCC[C@@H]2[C@H]3CCCN4CCC[C@@H](CN12)[C@@H]34 [MT, Matrine], the “whole-cell patch clamp of HVA Ca2+ currents in native mouse DRG neurons, occlusi” value was “the inhibitory effect of MT on HVA Ica current is mainly by inhibiting the N-type calcium channel”.
